In US10926086B2, “Lymphatic system neuromodulation and uses thereof” (THE FEINSTEIN INSTITUTES FOR MEDICAL RESEARCH, priority 2016, dated 2021):

Key:
[1] = tested on: Mice immunized with KLH; experiment: Nerve block: antigen signal in sciatic lymph node after bupivacaine; format: in vivo; details: 25 μl bupivacaine 0.375% at sciatic and femoral nerves before KLH-800CW in hind paw, imaged after one hour, mean±SEM, saline control 31.45±3.759, p<0.05
Method: In situ Antigen Imaging. 20 μl of 100 μg/ml labeled antigen was injected subcutaneously into the dorsum of the hind paw with an insulin syringe. After the predetermined time, the animal was euthanized using carbon dioxide, the skin over the area of interest was removed, and the animal was placed in a supine position in an Odyssey infrared imager. To image lymph node antigen content, sciatic and popliteal lymph nodes were surgically removed and placed into black, clear-bottomed 96-well plates filled with T-per (Thermo Scientific). These plates were imaged on the Odyssey imager. Immunization. Unlabeled antigen (100 μg) and 50% Imject alum (Thermo Scientific) in 200 μl 0.9% saline was injected intraperitoneally. Two weeks later, animals were injected again with the same solution as a booster. Two weeks after the booster injection, animals were used for experiments. Control animals received injections of 50% alum in saline. Nerve Block. Mice were immunized with 100 μg antigen and 50% Imject alum in 200 μl saline injected intraperitoneally twice, two weeks apart. Two weeks after the second injections, 25 μl bupivacaine (0.375%, APP Pharmaceuticals) or 0.9% saline was injected at the sciatic nerve and the femoral nerve of the hind leg. 20 minutes after the initial injection, animals were injected with labeled antigen in the dorsum of the hind paw. […]

[2] = tested on: Naïve Balb/c mice; experiment: Passive immunization: labeled antigen accumulation in sciatic lymph nodes; format: in vivo; details: naïve mice given rabbit polyclonal anti-OVA antibodies i.p.; 24 hours later 800CW-labeled antigen s.c. in dorsum of hind paw; imaged after one hour; mean±SEM
Method: In situ Antigen Imaging. 20 μl of 100 μg/ml labeled antigen was injected subcutaneously into the dorsum of the hind paw with an insulin syringe. After the predetermined time, the animal was euthanized using carbon dioxide, the skin over the area of interest was removed, and the animal was placed in a supine position in an Odyssey infrared imager. To image lymph node antigen content, sciatic and popliteal lymph nodes were surgically removed and placed into black, clear-bottomed 96-well plates filled with T-per (Thermo Scientific). These plates were imaged on the Odyssey imager.
Passive Immunization. Naïve Balb/c mice were injected intraperitoneally with 100 μg rabbit polyclonal anti-ovalbumin antibody (Millipore). After 24 hours, mice were injected with OVA-800CW or KLH-800CW subcutaneously in the dorsum of the hind paw. After one hour, mice were euthanized and imaged.

Molecule	antigen signal in the sciatic lymph node (KLH-800CW fluorescence) [1]	accumulation of labeled antigen in the sciatic lymph nodes (fluorescence signal) [2]
CCCCN1CCCCC1C(=O)Nc1c(C)cccc1C (centres unmarked) [bupivacaine]	45.65±5.350	–
OVA: ovalbumin labeled with IrDye 800CW-NHS ester infrared fluorescent dye (conjugate, UniProt P01012 2-386, looked up, IRDye 800CW label, ovalbumin labeled with IrDye 800CW-NHS ester infrared fluorescent dye) Ovalbumin: GSIGAASMEFCFDVFKELKVHHANENIFYCPIAIMSALAMVYLGAKDSTRTQINKVVRFDKLPGFGDSIEAQCGTSVNVHSSLRDILNQITKPNDVYSFSLASRLYAEERYPILPEYLQCVKELYRGGLEPINFQTAADQARELINSWVESQTNGIIRNVLQPSSVDSQTAMVLVNAIVFKGLWEKAFKDEDTQAMPFRVTEQESKPVQMMYQIGLFRVASMASEKMKILELPFASGTMSMLVLLPDEVSGLEQLESIINFEKLTEWTSSNVMEERKIKVYLPRMKMEEKYNLTSVLMAMGITDVFSSSANLSGISSAESLKISQAVHAAHAEINEAGREVVGSAEAGVDAASVSEEFRADHPFLFCIKHIATNAVLFFGRCVSP	–	6.483±1.461
